Experimental data from patent US20110136751A1, “Use of Polyphenols in the Treatment of Cancer” (Green Molecular, priority 2009, published 2011).

How the values were obtained:
CHP-126 = assay: IC50 on cell viability, Cell Counting Kit-8; format: cell-based; details: Homo sapiens; code 14, CHP-126, Brain Neuroblastoma; cell viability 120 h after administration
Method: (§1) A panel of 36 human cell lines were first tested in terms of population doubling time and growth curves to determine the conditions for further assays. The cells were also tested to determine the dose of radiation that produces 50% cell viability (D50). […] Cell viability was determined 120 h after the administration of the compounds using the Cell Counting Kit-8 (Dojindo Molecular Technologies, Inc, Rockville, Md.). In the experiments, 0.1% SDS and 1% DMSO were used as positive and negative controls, respectively. Final concentrations of the compounds used in the experiments are listed below in Table 5: […]

Colo 201 = assay: IC50 on cell viability, Cell Counting Kit-8; format: cell-based; details: Homo sapiens; code 5, Colo 201, Colorectal Adenocarcinoma; cell viability 120 h after administration
Method: as §1

HT-1080 = assay: IC50 on cell viability, Cell Counting Kit-8; format: cell-based; details: Homo sapiens; code 9, HT-1080, Fibrosarcoma; cell viability 120 h after administration
Method: as §1

KHOS-NP = assay: IC50 on cell viability, Cell Counting Kit-8; format: cell-based; details: Homo sapiens; code 28, KHOS-NP, Bone Osteosarcoma; cell viability 120 h after administration
Method: as §1

SK-N-AS = assay: IC50 on cell viability, Cell Counting Kit-8; format: cell-based; details: Homo sapiens; code 17, SK-N-AS, Brain Neuroblastoma; cell viability 120 h after administration
Method: as §1

U-38 MG = assay: IC50 on cell viability, Cell Counting Kit-8; format: cell-based; details: Homo sapiens; code 13, U-38 MG, Brain Gliblastoma/astrocitoma; cell viability 120 h after administration
Method: as §1

HT-29 xenografts = assay: HT-29 xenograft growth; format: in vivo, nu/nu nude mice; details: i.v., 40 mg of t-PTER or QUER/kg×day, single PF
Method: Tumor growth was measured during a 30-day period. Tumor volume, one week after inoculation and before PF administration, was of 56+15 mm3. A. […] B. Growth profile of control ([…]) and t-PTER- and QUER (∘) (20 mg of each PF/kg)-treated HT-29-bearing mice. Data are means±S.D. of 18-20 mice per group. The significant test refers, for all groups, to the comparison between PTER and/or QUER and controls (treated with physiological saline) (*P<0.01). For HT-29 cancer cell xenograft experiments, female nu/nu nude mice (ages 6 to 8 weeks; […] Tumor volume was calculated based on two dimensions, measured using calipers, and was expressed in cubic millimeters according to the formula: […] For histological analysis the surgical and xenograft tissue samples were fixed in 4% formaldehyde, paraffin embedded, and stained with hematoxilin & eosin and safran. […] This study was conducted in compliance with international laws and policies (EEC Directive 86/609, OJ L 358. 1, Dec. 12, 1987; and NIH Guide for the Care and Use of Laboratory Animals, NIH Publ. No. 85-23, 1985). X rays were administered using a […] SL75 linear accelerator from Philips. For this purpose each mouse was anesthetized with nembutal (50 mg/kg i.p.), and fixed on a Perspex platform.

[1] = system: Human melanoma (A375), breast cancer (MCF7), lung cancer (A549), and colon cancer (HT29) cell lines; assay: Cell inhibition study (cell counting); format: cell-based; details: for cell number (relative proliferation index): 0-100 μM, FIGS. 8A through 8D; for IC50: Homo sapiens, all cell lines (A375, MCF7, A549, HT29)
Method: (§2) Cancer cells (0.2×10^6 cells/well) were seeded in six well-plates and, 24 h later, were treated with PTER or RES (0-100 mM) (ethanol as solvent vehicle was at a conc. of 0.3%). Cell growth was analyzed using the Countess® Automated Cell Counter (Invitrogen). Results were expressed as relative proliferation index±SD (n=4) where control is 100.
(§3) The aim of this study was to determine whether pterostilbene causes cytotoxicity in human tumors at concentrations that are reliable under in vivo conditions; and, to identify which death-related molecular mechanisms may be activated by the compound. Human melanoma (A375), breast cancer (MCF7), lung cancer (A549), and colon cancer (HT29) cell lines were used in this set of experiments. Pterostilbene and resveratrol were used in a μM range, between 10 μM (below the IC50 for all cell lines) and 200 μM (an unachievable in vivo concentration). Cell cycle and apoptosis induction were determined by flow cytometry.
as §2, with “Cells from the cancer lines” for “Cancer cells”, “pterostilbene” for “PTER”, “resveratrol” for “RES”, “μM)” for “mM)”

[2] = system: Human melanoma (A375), breast cancer (MCF7), lung cancer (A549), and colon cancer (HT29) cell lines; assay: Cell cycle study (flow cytometry); format: cell-based; details: treated for 24 h; FIG. 9
Method: Cancer cells (0.2×10^6 cells/well) were seeded in six well-plates and, 24 h later, were treated for 24 h with different concentrations ([…]) of PTER or ReES. Cells were trypsinized and pelleted at 1000×g for 2 min. Cells were resuspended in PBS. Ethanol was added up to a final 70% conc. The DNA cellular content was analyzed by flow cytometry (10000 cell events were collected per sample). Results are expressed as % of total cells±SD (n=3).
as §3
The effects of pterostilbene and resveratrol on cell cycle were tested. […] Both DNA synthesis and tubulin polymerization were seriously affected.

[3] = system: Human melanoma (A375), breast cancer (MCF7), lung cancer (A549), and colon cancer (HT29) cell lines; assay: Necrosis induction (LDH released to the extracellular medium); format: cell-based; details: with increasing concentration; FIG. 10
Method: Necrosis induction was evaluated by measuring lactate dehydrogenase (LDH) activity released to the extracellular medium. Cells were exposed to polyphenols for 24-72 h. Results are expressed as relative LDH activity±SD (n=3) where control is 100.
The tumor cell death induced by pterostilbene appears to be partially independent of caspase activity.

[4] = system: Human melanoma (A375), breast cancer (MCF7), lung cancer (A549), and colon cancer (HT29) cell lines; assay: Apoptosis induction (flow cytometry); format: cell-based; details: with increasing concentration
Method: as §3, with “Pterostilbene and resveratrol were used in a μM range, between 10 μM (below the IC50 for all cell lines) and 200 μM (an unachievable in vivo concentration).” left out, “cytometry. […] The tumor cell death induced by pterostilbene appears to be partially independent of caspase activity.” for “cytometry.”

[5] = cited from earlier work

| Compound | IC50 (CHP-126) [µM] | IC50 (Colo 201) [µM] | IC50 (HT-1080) [µM] | IC50 (KHOS-NP) [µM] | IC50 (SK-N-AS) [µM] | IC50 (U-38 MG) [µM] | CRC growth inhibition compared with the 20 mg/kg×day dose (HT-29 xenografts) | inhibitory effect on human tumor cell growth versus resveratrol [1] | cell number (relative proliferation index) [1] | IC50 [1] [µM] | cell cycle [2] | Necrosis (LDH activity released to the extracellular medium) [3] | apoptosis [4] | half-life in blood ([5]; rabbit, in vivo) [min] | half-life in circulating blood ([5]; after i.v. administration of 20 mg/kg to e.g. rabbits) [min] |
| --- | --- | --- | --- | --- | --- | --- | --- | --- | --- | --- | --- | --- | --- | --- | --- |
| COc1cc(/C=C/c2ccc(O)cc2)cc(OC)c1 [t-PTER, trans-3,5-dimethoxy-4′-hydroxystilbene] | 1.42 | 29.8 | 17.8 | 25.6 | 29.1 | 29.7 | not significantly different | stronger inhibitory effect | reduced cell number in a concentration- and time-dependent manner | > 10 | arrested in S phase | progressively activated | progressively activated | ~77.9 |  |
| O=c1c(O)c(-c2ccc(O)c(O)c2)oc2cc(O)cc(O)c12 [QUER, quercetin] | 19.1 | 18.1 | 5.54 | 15.7 | 19.8 | 4.83 | not significantly different |  |  |  |  |  |  |  |  |
| Oc1ccc(/C=C/c2cc(O)cc(O)c2)cc1 [RI, trans-3,5,4′-trihydroxystilbene, reference compound] | 26.7 | 37.4 | 10.2 | 20 | 68.3 | 6.29 |  |  | reduced cell number in a concentration- and time-dependent manner | > 10 | arrested in S phase | progressively activated | progressively activated |  | ~14.4 |
